pIC50: −log10 of the molar value.
What follows are compounds tested against BCL-2 recombinant protein (Homo sapiens, UniProt P10415) (assay: Cell free Bcl-2:Bak affinity assay (Bcl-2 Bak), HTRF competition of FAM-Bak peptide). Conditions: 10-concentration IC50 mode, 4 nM BCL-2 recombinant protein, 100 nM FAM-Bak, read-out: potency (IC50).
Type: binding
Procedure, shortened: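 Compounds in 10-point 3-fold dilution preincubated 10 min at RT with 4 nM GST-BCL-2 (20 mM K phosphate pH 7.5, 50 mM NaCl, 1 mM EDTA, 0.005% Triton X-100), then 100 nM FAM-Bak 10 min, anti-GST-Tb added, 60 min RT dark. HTRF read; % inhibition vs DMSO and positive control, IC50 from curve fit.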

Sequence of BCL-2 recombinant protein (P10415 whole entry): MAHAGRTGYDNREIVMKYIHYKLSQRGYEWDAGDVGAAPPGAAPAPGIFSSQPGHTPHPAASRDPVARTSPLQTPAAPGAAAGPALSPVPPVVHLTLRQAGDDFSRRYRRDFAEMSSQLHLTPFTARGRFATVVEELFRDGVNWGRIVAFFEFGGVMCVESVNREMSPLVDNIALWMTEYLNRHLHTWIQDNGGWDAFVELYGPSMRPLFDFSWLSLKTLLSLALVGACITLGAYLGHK

| pIC50 | Structure (SMILES) |
| --- | --- |
| 6.00 to 7.00 | CC1(C)CCC(CN2CCN(c3ccc(S(=O)(=O)NC(=O)c4cnc5sccc5c4)c(Oc4cnc5[nH]ccc5c4)c3)CC2)=C(c2ccc(Cl)cc2)C1 [Example 75, N-((2-((1H-pyrrolo[2,3-b]pyridin-5-yl)oxy)-4-(4-[[2-(4-Chlorophenyl)-4,4-dimethylcyclohexen-1-yl]methyl]piperazin-1-yl]phenyl)sulfonyl)thieno[2,3-b]pyridine-5-carboxamide] |
| 7.00 to 8.00 | Cc1cn(C)nc1C(=O)NS(=O)(=O)c1ccc(N2CCN(CC3=C(c4ccc(Cl)cc4)CC(C)(C)CC3)CC2)cc1Oc1cnc2[nH]ccc2c1 [Example 76, N-[4-[4-[[2-(4-chlorophenyl)-4,4-dimethylcyclohexen-1-yl]methyl]piperazin-1-yl]-2-(1H-pyrrolo[2,3-b]pyridin-5-yloxy)phenyl]sulfonyl-1,4-dimethylpyrazole-3-carboxamide] |
| 6.00 to 7.00 | Cc1cc(C(=O)NS(=O)(=O)c2ccc(N3CCN(CC4=C(c5ccc(Cl)cc5)CC(C)(C)CC4)CC3)cc2Oc2cnc3[nH]ccc3c2)nn1C [Example 77, N-[4-[4-[[2-(4-chlorophenyl)-4,4-dimethylcyclohexen-1-yl]methyl]piperazin-1-yl]-2-(1H-pyrrolo[2,3-b]pyridin-5-yloxy)phenyl]sulfonyl-1,5-dimethylpyrazole-3-carboxamide] |
| 6.00 to 7.00 | Cc1nn(C)c(C(=O)NS(=O)(=O)c2ccc(N3CCN(CC4=C(c5ccc(Cl)cc5)CC(C)(C)CC4)CC3)cc2Oc2cnc3[nH]ccc3c2)c1C [Example 78, N-[4-[4-[[2-(4-chlorophenyl)-4,4-dimethylcyclohexen-1-yl]methyl]piperazin-1-yl]-2-(1H-pyrrolo[2,3-b]pyridin-5-yloxy)phenyl]sulfonyl-2,4,5-trimethylpyrazole-3-carboxamide] |
| 7.00 to 8.00 | Cc1cc(C(=O)NS(=O)(=O)c2ccc(N3CCN(CC4=C(c5ccc(Cl)cc5)CC(C)(C)CC4)CC3)cc2Oc2cnc3[nH]ccc3c2)cc([N+](=O)[O-])c1 [Example 79, N-[4-[4-[[2-(4-chlorophenyl)-4,4-dimethylcyclohexen-1-yl]methyl]piperazin-1-yl]-2-(1H-pyrrolo[2,3-b]pyridin-5-yloxy)phenyl]sulfonyl-3-methyl-5-nitrobenzamide] |
| > 8.00 | Cc1c(Cl)c(C(=O)NS(=O)(=O)c2ccc(N3CCN(CC4=C(c5ccc(Cl)cc5)CC(C)(C)CC4)CC3)cc2Oc2cnc3[nH]ccc3c2)cc([N+](=O)[O-])c1NCC1CCOCC1 [Example 80, 2-Chloro-N-[4-[4-[[2-(4-chlorophenyl)-4,4-dimethylcyclohexen-1-yl]methyl]piperazin-1-yl]-2-(1H-pyrrolo[2,3-b]pyridin-5-yloxy)phenyl]sulfonyl-3-methyl-5-nitro-4-(oxan-4-ylmethylamino)benzamide] |
| > 8.00 | Cc1c(Cl)c(C(=O)NS(=O)(=O)c2ccc(N3CCN(CC4=C(c5ccc(Cl)cc5)CC(C)(C)CC4)CC3)cc2Oc2cnc3[nH]ccc3c2)cc([N+](=O)[O-])c1OCC1CCOCC1 [Example 81, 2-Chloro-N-[4-[4-[[2-(4-chlorophenyl)-4,4-dimethylcyclohexen-1-yl]methyl]piperazin-1-yl]-2-(1H-pyrrolo[2,3-b]pyridin-5-yloxy)phenyl]sulfonyl-3-methyl-5-nitro-4-(oxan-4-ylmethoxy)benzamide] |
| > 8.00 | CC1(C)CCC(CN2CCN(c3ccc(S(=O)(=O)NC(=O)c4ccc(COc5ccc(Cl)cc5)c([N+](=O)[O-])c4)c(Oc4cnc5[nH]ccc5c4)c3)CC2)=C(c2ccc(Cl)cc2)C1 [Example 82] |
| 7.00 to 8.00 | CC1(C)CCC(CN2CCN(c3ccc(S(=O)(=O)NC(=O)c4ccc(COc5ccc(Cl)cc5)c(F)c4)c(Oc4cnc5[nH]ccc5c4)c3)CC2)=C(c2ccc(Cl)cc2)C1 [Example 83, 4-[(4-Chlorophenoxy)methyl]-N-[4-[4-[[2-(4-chlorophenyl)-4,4-dimethylcyclohexen-1-yl]methyl]piperazin-1-yl]-2-(1H-pyrrolo[2,3-b]pyridin-5-yloxy)phenyl]sulfonyl-3-fluorobenzamide] |
| 7.00 to 8.00 | COCc1cc(C(=O)NS(=O)(=O)c2ccc(N3CCN(CC4=C(c5ccc(Cl)cc5)CC(C)(C)CC4)CC3)cc2Oc2cnc3[nH]ccc3c2)cc([N+](=O)[O-])c1 [Example 85, N-[4-[4-[[2-(4-chlorophenyl)-4,4-dimethylcyclohexen-1-yl]methyl]piperazin-1-yl]-2-(1H-pyrrolo[2,3-b]pyridin-5-yloxy)phenyl]sulfonyl-3-(methoxymethyl)-5-nitrobenzamide] |

Further lines, the compound ahead of its results:

| Structure (SMILES) | pIC50 |
| --- | --- |
| Cn1cc(-c2nc(C(=O)NS(=O)(=O)c3ccc(N4CCN(CC5=C(c6ccc(Cl)cc6)CC(C)(C)CC5)CC4)cc3Oc3cnc4[nH]ccc4c3)ccc2F)cn1 [Example 63, N-[4-[4-[[2-(4-Chlorophenyl)-4,4-dimethylcyclohexen-1-yl]methyl]piperazin-1-yl]-2-(1H-pyrrolo[2,3-b]pyridin-5-yloxy)phenyl]sulfonyl-5-fluoro-6-(1-methylpyrazol-4-yl)pyridine-2-carboxamide] | 7.00 to 8.00 |
| Cc1cc([N+](=O)[O-])cc(C(=O)NS(=O)(=O)c2ccc(C3=CCN(CC4=C(c5ccc(Cl)cc5)CC(C)(C)CC4)CC3)cc2Oc2cnc3[nH]ccc3c2)n1 [Example 64, N-[4-[1-[[2-(4-Chlorophenyl)-4,4-dimethylcyclohexen-1-yl]methyl]-3,6-dihydro-2H-pyridin-4-yl]-2-(1H-pyrrolo[2,3-b]pyridin-5-yloxy)phenyl]sulfonyl-6-methyl-4-nitropyridine-2-carboxamide] | < 6.00 |
| Cc1cc([N+](=O)[O-])cc(C(=O)NS(=O)(=O)c2ccc(C3=CCN(CC4=C(c5ccc(Cl)cc5)CC(C)(C)CC4)CC3)cc2F)n1 [Example 65, N-[4-[1-[[2-(4-Chlorophenyl)-4,4-dimethylcyclohexen-1-yl]methyl]-3,6-dihydro-2H-pyridin-4-yl]-2-fluorophenyl]sulfonyl-6-methyl-4-nitropyridine-2-carboxamide] | > 8.00 |
| Cc1cc([N+](=O)[O-])cc(C(=O)NS(=O)(=O)c2ccc(N3CCN(CC4=C(c5ccc(Cl)cc5)CC(C)(C)CC4)CC3)cc2Oc2cnc3[nH]ccc3c2)n1 [Example 66, N-[4-[4-[[2-(4-Chlorophenyl)-4,4-dimethylcyclohexen-1-yl]methyl]piperazin-1-yl]-2-(1H-pyrrolo[2,3-b]pyridin-5-yloxy)phenyl]sulfonyl-6-methyl-4-nitropyridine-2-carboxamide] | 7.00 to 8.00 |
| CC1(C)CCC(CN2CCN(c3ccc(S(=O)(=O)NC(=O)c4ccc(F)c(Br)n4)c(Oc4cnc5[nH]ccc5c4)c3)CC2)=C(c2ccc(Cl)cc2)C1 [Example 67, N-[4-[4-[[2-(4-chlorophenyl)-4,4-dimethylcyclohexen-1-yl]methyl]piperazin-1-yl]-2-(1H-pyrrolo[2,3-b]pyridin-5-yloxy)phenyl]sulfonyl-6-bromo-5-fluoropyridine-2-carboxamide] | 7.00 to 8.00 |
| CC1(C)CCC(CN2CCN(c3ccc(S(=O)(=O)NC(=O)c4ccc(Cl)c(Cl)n4)c(Oc4cnc5[nH]ccc5c4)c3)CC2)=C(c2ccc(Cl)cc2)C1 [Example 68, 5,6-Dichloro-N-[4-[4-[[2-(4-chlorophenyl)-4,4-dimethylcyclohexen-1-yl]methyl]piperazin-1-yl]-2-(1H-pyrrolo[2,3-b]pyridin-5-yloxy)phenyl]sulfonylpyridine-2-carboxamide] | 7.00 to 8.00 |
| Cc1nc(C(=O)NS(=O)(=O)c2ccc(N3CCN(CC4=C(c5ccc(Cl)cc5)CC(C)(C)CC4)CC3)cc2Oc2cnc3[nH]ccc3c2)ccc1F [Example 69, N-[4-[4-[[2-(4-chlorophenyl)-4,4-dimethylcyclohexen-1-yl]methyl]piperazin-1-yl]-2-(1H-pyrrolo[2,3-b]pyridin-5-yloxy)phenyl]sulfonyl-5-fluoro-6-methylpyridine-2-carboxamide] | 7.00 to 8.00 |
| Cc1nc(C(=O)NS(=O)(=O)c2ccc(N3CCN(CC4=C(c5ccc(Cl)cc5)CC(C)(C)CC4)CC3)cc2Oc2cnc3[nH]ccc3c2)ccc1[N+](=O)[O-] [Example 70, N-[4-[4-[[2-(4-chlorophenyl)-4,4-dimethylcyclohexen-1-yl]methyl]piperazin-1-yl]-2-(1H-pyrrolo[2,3-b]pyridin-5-yloxy)phenyl]sulfonyl-6-methyl-5-nitropyridine-2-carboxamide] | 7.00 to 8.00 |
| CC1(C)CCC(CN2CCN(c3ccc(S(=O)(=O)NC(=O)c4ccc(Cl)c(C(F)(F)F)n4)c(Oc4cnc5[nH]ccc5c4)c3)CC2)=C(c2ccc(Cl)cc2)C1 [Example 71, 5-Chloro-N-[4-[4-[[2-(4-chlorophenyl)-4,4-dimethylcyclohexen-1-yl]methyl]piperazin-1-yl]-2-(1H-pyrrolo[2,3-b]pyridin-5-yloxy)phenyl]sulfonyl-6-(trifluoromethyl)pyridine-2-carboxamide] | 6.00 to 7.00 |
| CC1(C)CCC(CN2CCN(c3ccc(S(=O)(=O)NC(=O)c4ccc([N+](=O)[O-])c(Cl)n4)c(Oc4cnc5[nH]ccc5c4)c3)CC2)=C(c2ccc(Cl)cc2)C1 [Example 72, 6-Chloro-N-[4-[4-[[2-(4-chlorophenyl)-4,4-dimethylcyclohexen-1-yl]methyl]piperazin-1-yl]-2-(1H-pyrrolo[2,3-b]pyridin-5-yloxy)phenyl]sulfonyl-5-nitropyridine-2-carboxamide] | 7.00 to 8.00 |
| Cc1nc(C(=O)NS(=O)(=O)c2ccc(N3CCN(CC4=C(c5ccc(Cl)cc5)CC(C)(C)CC4)CC3)cc2Oc2cnc3[nH]ccc3c2)ccc1Cl [Example 73, N-[4-[4-[[2-(4-chlorophenyl)-4,4-dimethylcyclohexen-1-yl]methyl]piperazin-1-yl]-2-(1H-pyrrolo[2,3-b]pyridin-5-yloxy)phenyl]sulfonyl-5-chloro-6-methylpyridine-2-carboxamide] | 7.00 to 8.00 |
| CC1(C)CCC(CN2CCN(c3ccc(S(=O)(=O)NC(=O)c4ccc5c(c4)CCCO5)c(Oc4cnc5[nH]ccc5c4)c3)CC2)=C(c2ccc(Cl)cc2)C1 [Example 74, N-[4-[4-[[2-(4-chlorophenyl)-4,4-dimethylcyclohexen-1-yl]methyl]piperazin-1-yl]-2-(1H-pyrrolo[2,3-b]pyridin-5-yloxy)phenyl]sulfonyl-3,4-dihydro-2H-chromene-6-carboxamide] | 6.00 to 7.00 |

— US11622970B2, “BCL-2 inhibitors and their use as pharmaceuticals” (PRELUDE THERAPEUTICS INCORPORATED, priority 2020, dated 2023)
